Consider 18 compounds from patent publication US20240043404A1 (AbbVie Inc., priority 2009, published 2024).

In the experiment the test system is RS4;11 cells. The experiment in a line: RS4;11 cell viability assay (CellTiter Glo).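 Note: acute lymphoblastic leukemia line RS4,11, EC50 derived from percentage of viable cells after treatment relative to untreated controls, cell killing taken as a measure of Bcl-2 inhibition.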 Type of experiment: cell-based, human. The following applies: Homo sapiens, RS4-11, 48 h, 50,000 cells per well, 10% human serum, 48 hours; read-out: RS4; 11 EC50 Values.
Description: The acute lymphoblastic leukemia (ALL) cell line RS4;11 was used as the primary human cell line to assess the cellular activity of Bcl-2 selective agents in vitro and their efficacy in vivo.
Cell cytotoxicity EC50 values were assessed using CellTiter Glo (Promega) according to the manufacturer's recommendations. The EC50 values were determined as a percentage of viable cells following treatment compared to the untreated control cells.
As to `CC1(C)CCC(CN2CCN(c3ccc(C(=O)NS(=O)(=O)c4ccc(NCC5CCOCC5)c(C#N)c4)c(Oc4cnc5[nH]ccc5c4)c3)CC2)=C(c2ccc(Cl)cc2)C1` [Example 110, 4-(4-{[2-(4-chlorophenyl)-4,4-dimethylcyclohex-1-en-1-yl]methyl}piperazin-1-yl)-N-({3-cyano-4-[(tetrahydro-2H-pyran-4-ylmethyl)amino]phenyl}sulfonyl)-2-(1H-pyrrolo[2,3-b]pyridin-5-yloxy)benzamide], the EC50 came out at 536 nM. As for `CN1CCC(CNc2ccc(S(=O)(=O)NC(=O)c3ccc(N4CCN(CC5=C(c6ccc(Cl)cc6)CC(C)(C)CC5)CC4)cc3Oc3cnc4[nH]ccc4c3)cc2[N+](=O)[O-])CC1` [Example 65, 4-(4-{[2-(4-chlorophenyl)-4,4-dimethylcyclohex-1-en-1-yl]methyl}piperazin-1-yl)-N-[(4-{[(1-methylpiperidin-4-yl)methyl]amino}-3-nitrophenyl)sulfonyl]-2-(1H-pyrrolo[2,3-b]pyridin-5-yloxy)benzamide], the EC50 amounted to 0.25 nM. The same measure for `CCN(C)C(=O)N1CCOC(CNc2ccc(S(=O)(=O)NC(=O)c3ccc(N4CCN(CC5=C(c6ccc(Cl)cc6)CC(C)(C)CC5)CC4)cc3Oc3cnc4[nH]ccc4c3)cc2[N+](=O)[O-])C1` (stereo not drawn) [Example 318, 2-{[(4-{[4-(4-{[2-(4-chlorophenyl)-4,4-dimethylcyclohex-1-en-1-yl]methyl}piperazin-1-yl)-2-(1H-pyrrolo[2,3-b]pyridin-5-yloxy)benzoyl]sulfamoyl}-2-nitrophenyl)amino]methyl}-N-ethyl-N-methylmorpholine-4-carboxamide]: 11.6 nM; for `CC1(C)CC(c2ccc(Cl)cc2)=C(CN2CCN(c3ccc(C(=O)NS(=O)(=O)c4ccc(OCC5COCCO5)c([N+](=O)[O-])c4)c(Oc4cnc5[nH]ccc5c4)c3)CC2)CO1` (stereo not drawn) [Example 32, 4-(4-{[4-(4-chlorophenyl)-6,6-dimethyl-5,6-dihydro-2H-pyran-3-yl]methyl}piperazin-1-yl)-N-{[4-(1,4-dioxan-2-ylmethoxy)-3-nitrophenyl]sulfonyl}-2-(1H-pyrrolo[2,3-b]pyridin-5-yloxy)benzamide]: 81.5 nM; for `CC1(C)CCC(CN2CCN(c3ccc(C(=O)NS(=O)(=O)c4ccc(O[C@@H]5CCN(C(CF)CF)C5)c([N+](=O)[O-])c4)c(Oc4cnc5[nH]ccc5c4)c3)CC2)=C(c2ccc(Cl)cc2)C1` [Example 235, 4-(4-{[2-(4-chlorophenyl)-4,4-dimethylcyclohex-1-en-1-yl]methyl}piperazin-1-yl)-N-[(4-{[(3R)-1-(1,3-difluoropropan-2-yl)pyrrolidin-3-yl]oxy}-3-nitrophenyl)sulfonyl]-2-(1H-pyrrolo[2,3-b]pyridin-5-yloxy)benzamide]: 32.3 nM. Turning to `CC1(C)CCC(CN2CCN(c3ccc(C(=O)NS(=O)(=O)c4ccc(OCC5(F)CCN(C(=O)OC(C)(C)C)CC5)c([N+](=O)[O-])c4)c(Oc4cnc5[nH]ccc5c4)c3)CC2)=C(c2ccc(Cl)cc2)C1` [Example 126, tert-butyl 4-{[4-({[4-(4-{[2-(4-chlorophenyl)-4,4-dimethylcyclohex-1-en-1-yl]methyl}piperazin-1-yl)-2-(1H-pyrrolo[2,3-b]pyridin-5-yloxy)benzoyl]amino}sulfonyl)-2-nitrophenoxy]methyl}-4-fluoropiperidine-1-carboxylate], the EC50 amounted to 53.6 nM.

Consider `CC1(C)CCC(CN2CCN(c3ccc(C(=O)NS(=O)(=O)c4ccc(N[C@@H]5CCN(C6CCOCC6)C5)c([N+](=O)[O-])c4)c(Oc4cnc5[nH]ccc5c4)c3)CC2)=C(c2ccc(Cl)cc2)C1` [Example 130, 4-(4-{[2-(4-chlorophenyl)-4,4-dimethylcyclohex-1-en-1-yl]methyl}piperazin-1-yl)-N-[(3-nitro-4-{[(3R)-1-tetrahydro-2H-pyran-4-ylpyrrolidin-3-yl]amino}phenyl)sulfonyl]-2-(1H-pyrrolo[2,3-b]pyridin-5-yloxy)benzamide], for which the EC50 was 10.6 nM. In the case of `CC1(C)CCC(CN2CCN(c3ccc(C(=O)NS(=O)(=O)c4cnc(OCC5CCc6nccn6C5)c(Cl)c4)c(Oc4cnc5[nH]ccc5c4)c3)CC2)=C(c2ccc(Cl)cc2)C1` (stereo not drawn) [Example 342, 4-(4-{[2-(4-chlorophenyl)-4,4-dimethylcyclohex-1-en-1-yl]methyl}piperazin-1-yl)-N-{[5-chloro-6-(5,6,7,8-tetrahydroimidazo[1,2-a]pyridin-6-ylmethoxy)pyridin-3-yl]sulfonyl}-2-(1H-pyrrolo[2,3-b]pyridin-5-yloxy)benzamide] it was 50.9 nM.

With `O=C(NS(=O)(=O)c1cnc(OCC2CCOCC2)c(Cl)c1)c1ccc(N2CCN(CC3=C(c4ccc(Cl)cc4)CCC4(CCN(C(CF)CF)CC4)C3)CC2)cc1Oc1cnc2[nH]ccc2c1` [Example 267, 4-(4-{[9-(4-chlorophenyl)-3-(1,3-difluoropropan-2-yl)-3-azaspiro[5.5]undec-8-en-8-yl]methyl}piperazin-1-yl)-N-{[5-chloro-6-(tetrahydro-2H-pyran-4-ylmethoxy)pyridin-3-yl]sulfonyl}-2-(1H-pyrrolo[2,3-b]pyridin-5-yloxy)benzamide], the EC50 was determined as 69.4 nM. The same measure for `CC1(C)CC(c2ccc(Cl)cc2)=C(CN2CCN(c3ccc(C(=O)NS(=O)(=O)c4ccc(NCC5CCOCC5)c(S(=O)(=O)C(F)(F)F)c4)c(Oc4cnc5[nH]ccc5c4)c3)CC2)CO1` [Example 43, 4-(4-{[4-(4-chlorophenyl)-6,6-dimethyl-5,6-dihydro-2H-pyran-3-yl]methyl}piperazin-1-yl)-2-(1H-pyrrolo[2,3-b]pyridin-5-yloxy)-N-({4-[(tetrahydro-2H-pyran-4-ylmethyl)amino]-3-[(trifluoromethyl)sulfonyl]phenyl}sulfonyl)benzamide]: 272 nM; for `O=C(NS(=O)(=O)c1ccc(OCC2(F)CCOCC2)c(Cl)c1)c1ccc(N2CCN(CC3=C(c4ccc(Cl)cc4)CCC4(CCN(C5COC5)CC4)C3)CC2)cc1Oc1cnc2[nH]ccc2c1` [Example 325, N-({3-chloro-4-[(4-fluorotetrahydro-2H-pyran-4-yl)methoxy]phenyl}sulfonyl)-4-(4-{[9-(4-chlorophenyl)-3-(oxetan-3-yl)-3-azaspiro[5.5]undec-8-en-8-yl]methyl}piperazin-1-yl)-2-(1H-pyrrolo[2,3-b]pyridin-5-yloxy)benzamide]: 12.3 nM. The same measure for `CO[C@H]1CC[C@H](COc2ncc(S(=O)(=O)NC(=O)c3ccc(N4CCN(CC5=C(c6ccc(Cl)cc6)CC(C)(C)CC5)CC4)cc3Oc3cnc4[nH]ccc4c3)cc2C(F)(F)F)CC1` [Example 300, 4-(4-{[2-(4-chlorophenyl)-4,4-dimethylcyclohex-1-en-1-yl]methyl}piperazin-1-yl)-N-({6-[(trans-4-methoxycyclohexyl)methoxy]-5-(trifluoromethyl)pyridin-3-yl}sulfonyl)-2-(1H-pyrrolo[2,3-b]pyridin-5-yloxy)benzamide]: 763 nM; for `CC1(C)CCC(CN2CCN(c3ccc(C(=O)NS(=O)(=O)c4cnc(OCCC5CCOCC5)c(C#N)c4)c(Oc4cnc5[nH]ccc5c4)c3)CC2)=C(c2ccc(Cl)cc2)C1` [Example 278, 4-(4-{[2-(4-chlorophenyl)-4,4-dimethylcyclohex-1-en-1-yl]methyl}piperazin-1-yl)-N-({5-cyano-6-[2-(tetrahydro-2H-pyran-4-yl)ethoxy]pyridin-3-yl}sulfonyl)-2-(1H-pyrrolo[2,3-b]pyridin-5-yloxy)benzamide]: 794 nM. As for `CN(C)CC(=O)N1CCC(F)(COc2ncc(S(=O)(=O)NC(=O)c3ccc(N4CCN(CC5=C(c6ccc(Cl)cc6)CC(C)(C)CC5)CC4)cc3Oc3cnc4[nH]ccc4c3)cc2Cl)CC1` [Example 270, N-[(5-chloro-6-{[1-(N,N-dimethylglycyl)-4-fluoropiperidin-4-yl]methoxy}pyridin-3-yl)sulfonyl]-4-(4-{[2-(4-chlorophenyl)-4,4-dimethylcyclohex-1-en-1-yl]methyl}piperazin-1-yl)-2-(1H-pyrrolo[2,3-b]pyridin-5-yloxy)benzamide], the EC50 turned out to be 2.52 nM. Turning to `CC1(C)CC(c2ccc(Cl)cc2)=C(CN2CCN(c3ccc(C(=O)NS(=O)(=O)c4cnc(OCC5CCOCC5)c(Cl)c4)c(Oc4cnc5[nH]ccc5c4)c3)CC2)CO1` [Example 41, 4-(4-{[4-(4-chlorophenyl)-6,6-dimethyl-5,6-dihydro-2H-pyran-3-yl]methyl}piperazin-1-yl)-N-{[5-chloro-6-(tetrahydro-2H-pyran-4-ylmethoxy)pyridin-3-yl]sulfonyl}-2-(1H-pyrrolo[2,3-b]pyridin-5-yloxy)benzamide], the EC50 came out at 58 nM. In the case of `O=C(NS(=O)(=O)c1ccc(NCC2CCOCC2)c([N+](=O)[O-])c1)c1ccc(N2CCN(CC3=C(c4ccc(Cl)cc4)CCC(F)(F)C3)CC2)cc1Oc1cnc2[nH]ccc2c1` [Example 321, 4-(4-{[2-(4-chlorophenyl)-5,5-difluorocyclohex-1-en-1-yl]methyl}piperazin-1-yl)-N-({3-nitro-4-[(tetrahydro-2H-pyran-4-ylmethyl)amino]phenyl}sulfonyl)-2-(1H-pyrrolo[2,3-b]pyridin-5-yloxy)benzamide] it was 18.8 nM. The same measure for `CC1(C)CCC(CN2CCN(c3ccc(C(=O)NS(=O)(=O)c4ccc(NCC5CN(CC(=O)O)CCO5)c([N+](=O)[O-])c4)c(Oc4cnc5[nH]ccc5c4)c3)CC2)=C(c2ccc(Cl)cc2)C1` (stereo not drawn) [Example 216, (2-{[(4-{[4-(4-{[2-(4-chlorophenyl)-4,4-dimethylcyclohex-1-en-1-yl]methyl}piperazin-1-yl)-2-(1H-pyrrolo[2,3-b]pyridin-5-yloxy)benzoyl]sulfamoyl}-2-nitrophenyl)amino]methyl}morpholin-4-yl)acetic acid]: 683 nM; for `CC1(C)CCC(CN2CCN(c3ccc(C(=O)NS(=O)(=O)c4cnc(OCCN5CCOCC5)c(C#N)c4)c(Oc4cnc5[nH]ccc5c4)c3)CC2)=C(c2ccc(Cl)cc2)C1` [Example 57, 4-(4-{[2-(4-chlorophenyl)-4,4-dimethylcyclohex-1-en-1-yl]methyl}piperazin-1-yl)-N-{[5-cyano-6-(2-morpholin-4-ylethoxy)pyridin-3-yl]sulfonyl}-2-(1H-pyrrolo[2,3-b]pyridin-5-yloxy)benzamide]: 426 nM.
